Here are results for 40 molecules from patent US10155985B2, “Evaluation of eosinophilic esophagitis” (CHILDREN'S HOSPITAL MEDICAL CENTER, priority 2004, dated 2018).

The series concerns EE transcriptome. The experiment in a line: Genome-wide microarray transcript profiling of esophageal biopsies, EE patients vs normal individuals (EE transcriptome). The conditions noted are these: Affymetrix Human Genome U133 plus 2, p<0.01. As for the experimental part:
Esophageal tissue obtained from patients previously diagnosed with EE was analyzed. Diagnosis was based on analysis of excised tissue from endoscopic biopsy. Tissues from patients with EE, as well as patients not having EE (controls) were subjected to genome-wide microarray transcript profiling (Affymetrix GeneChip). All work was performed at the Core facility at Children's Hospital Medical Center (Cincinnati Ohio).
Briefly, RNA quality was first assessed using the Agilent bioanaiyzer (Agilent Technologies, Palo Alto Calif.). Only mRNA having a ratio of 28S/18S between 1.3 and 2 were subsequently used. RNA was converted to cDNA with Superscript choice for cDNA synthesis (Invitrogen, Carlsbad Calif.) and subsequently converted to biotinylated cRNA with Enzo High Yield RNA Transcript labeling kit (Enzo Diagnostics, Farmingdale N.Y.). After hybridization to the GeneChip (Affymetrix, Santa Clara Calif.), the chips were automatically washed and stained with streptavidin-phycoerythrin using a fluidics system. The chips were scanned with a Hewlett Packard GeneArray Scanner. Over 30,000 unique genes were screened.
Levels of gene transcripts were determined from data image files, using algorithms in the Microarray Analysis Suite software (Affymetrix). Levels from chip to chip were compared by global scaling. Each gene was typically represented by a probe set of 16 to 20 probe pairs. Each probe pair consisted of a perfect match oligonucleotide and a mismatch oligonucleotide that contained a one base mismatch at a central position. Two measures of gene expression were used, absolute call and average difference. Absolute call is a qualitative measure in which each gene is assigned a call of present, marginal or absent, based on the hybridization of the RNA to the probe set. Average difference is a quantitative measure of the level of gene expression, calculated by taking the difference between […] of every probe pair and averaging the differences over the entire probe set. Data were normalized and an EE transcriptome gene list was created with results having p<0.01 (Welch t-test with or without false rate discovery) and ≥1.5-fold change.
For evaluation of EE using clinical and/or physical assessment, biopsy tissues (obtained from the distal esophagus during routine endoscopy) were submerged in formalin for routine pathological analysis with hematoxylin and eosin staining. Diagnosis was established based on the maximum eosinophil count per high power field (hpf) and basal layer expansion according to method known in the art (e.g., established criteria in Rothenberg et al., Pathogenesis and clinical features of eosinophilic esophagitis. J Allergy Clin Immunol 108 (2001) 891; Attwood et al., Esophageal eosinophilia with dysphagia. A distinct clinicopathologic syndrome. Dig Dis Sci 38 (1993)109; Fox et al., Eosinophilic esophagitis: its not just kid's stuff. Gastrointest Endosc 56 (2002) 26, each of which is expressly incorporated by reference herein in its entirety. Normal individuals (NL), n=13, served as a control and were defined as having 0 eosinophils/hpf and no basal layer expansion. Individuals with EE (n=76) were defined as having >24 eosinophils/hpf and extensive basal layer hyperplasia (expansion to about >⅓ of epithelium).
The data were analyzed by cluster analysis and ordered (standard correlation (A) and distance (B)) using Genespring software. […] Each column represented a separate individual and each line a gene. RNA from each patient was subjected to chip analysis using Affymetrix Human Genome U133 GeneChip plus 2.

Where [1] appears, read: transcript level in esophageal biopsies of EE patients compared to normal individuals (NL), >1 up-regulated, <1 down-regulated.
Where [2] appears, read: transcript level in esophageal biopsies of EE patients (n=76) compared to normal individuals (n=13).

For the molecule 13CDNA73, the “Fold Change” value under setting [1] was 0.632.
Regarding AADAT, the “Fold Change” value under setting [1] came out at 0.608.
On the same count and under the same terms, under ABCC1 stands 0.622; under ABHD6, 0.609; under ACADL, 0.588.
With ACOX2, the “Fold Change” value under setting [1] was determined as 0.592.
As for ACSL5, the “Fold Change” value under setting [2] was determined as 2.745.
On to ADAM28, for which, under setting [2], the “Fold Change” value is 2.613.
Consider ADAMTS17, for which the “Fold Change” value under setting [1] was found to be 0.631.
In the case of ADAR, the “Fold Change” value under setting [1] is 1.509.
As for SAMD9, the “Fold Change” value under setting [1] turned out to be 0.634.
For the molecule SAMSN1, the “Fold Change” value under setting [2] is on record as 7.119.
Turning to SC5DL, the “Fold Change” value under setting [1] was found to be 0.6.
On to SCEL, for which the “Fold Change” value under setting [1] amounted to 0.631.
Turning to SCIN, the “Fold Change” value under setting [2] worked out at 3.17.
As for SCUBE1, under setting [2], the “Fold Change” value amounted to 2.689.
On the same count and under the same terms, under SCUBE2 stands 5.502.
Take SCYL2: the “Fold Change” value under setting [1] was found to be 1.507.
Take SDPR: the “Fold Change” value under setting [2] was determined as 2.293.
With SE57-1, the “Fold Change” value under setting [2] is recorded as 4.055.
As for SEC6L1, the “Fold Change” value under setting [2] is 8.878.
As for SEC24C, the “Fold Change” value under setting [1] is listed as 0.647.
SECTM1: the “Fold Change” value under setting [2] amounted to 3.282.
On the same count and under the same terms, under SEPX1 stands 2.611; under SERPINB4, 4.328.
With SF3B3, under setting [1], the “Fold Change” value is listed as 0.655.
On to SFRP1, for which, under setting [2], the “Fold Change” value is on record as 4.098.
Consider SFRS5, for which, under setting [1], the “Fold Change” value was found to be 0.666.
Take SGK: the “Fold Change” value under setting [2] is 3.139.
Turning to SGPL1, the “Fold Change” value under setting [1] was determined as 0.63.
As for SH2D1B, under setting [2], the “Fold Change” value is recorded as 3.098.
For the molecule SH3BP5, the “Fold Change” value under setting [1] was 0.622.
With SH3RF2, the “Fold Change” value under setting [2] amounted to 3.122.
Regarding SIDT1, under setting [2], the “Fold Change” value worked out at 4.822.
On to SIGLEC6, for which the “Fold Change” value under setting [2] was found to be 3.199.
As for SLC15A1, the “Fold Change” value under setting [2] is 2.792.

B1: SEQ_ID_#783 (nucleic acid, listed as Homo sapiens)
DNA: TATCACGCACAAATTGCAATTACTTCACACTCACGATAACCCATTAATCTGTGAAGGATTAATCTGTTCATGAAGGCAGGGCCCTCATGATGGAATCACATCTTAAAGCCCCTACGTCTGAGTACTGTTACATTGGGGATTTAGTTTTAATATGATTTTCAGAGCAGAAAAACATTCAAACCATAGCAATATGTATTGAATATCTAGATCATTTCCAAATAAGATATTAATATGATACTGAAACATTTATTGCTGAACATAAATTTAGAACTTACTTTGCCTACCTATTACAGAAGAACAAAAGATATTTGGGCCTATTAAACCTTTCCTCTGCCATTTCCTGTCCTGTGTCATAGGACTAGGAATCGTGTTTCTAGAAGGTATGAAATCGTGTGCTTGCAAACTTGGAAGAAAACAGTTCATGACTGCATACCTTCTAGTTCTCTAGTGTTCACTGGAAATTAAAGACACTAAAAGTTAACAATTCTTATTAATTAATCATATTAATGTAATTGGAATTTCTAGAAATATTAGGGGAAGCAACTTTATACGCAAAGCATAACAGAAAAATAAGGTGTATTTTTTCTTTGAAACCTATGAAATATACTGGCCAGGCACGGTGGCTCATGCTTGTAATCCCAGCACTTTGGGAAGCTGAAGCGGTGGATCACCTGAGCTCAGGAGTCCGAGACCAGCTGGCCACATGTTGAACCATGTCTCTACTAAAATACAAAATTAGCAGTCATGTGCGGTGCTGTACCCCAGTACTCGGAGCTGGGGGGAATCGTGACCGGGTGGGTGCTGACCAAACCTGGCCCAGCGGGAAAGAGACTTTAAAACAATGGACCAAACTGCACAAGCTCTGCCACACTTGTCGAACCCGTGGACGCACAAGAAAAGGGCATCTGGACCTGGAATAACGAAACGACACATCT
B1: the “Fold Change” value under setting [1] was found to be 1.53.

B2: SEQ_ID_#787 (nucleic acid, listed as Homo sapiens)
DNA: TTTGGTACAGAATGAAACCGTTCTCTTTGAAGAACTGCATGTTTCCCCCAGTCATTTTTGTCCTGGGGGAGTCAAGTGTTTTTACGGACCCTTGAAGCTTGAGGACACTCTGGCATCACCCATTGTTGGGGTGACTTTCTGGTGATTATCAGTGAGCAAACTTCAAGGCCAGCTCCGATTAGGAAAATCTGCCAAGTGTGAGTTTCCTTGGAGCTAGGACTGGGCAGAGACCCCTGGTCCTTGGTCCGTAGGGAAGCTGGGGGATTTGGGGGGTAAGTAATGAGATCATGTCTGCAGAGGCCCCCAGCCTCTTGGAAGAAGATTCCGCTGTAATTTCTTGGAAAAAGCCAACTCCTTCCAGCCCTTTCTGCTCACACCATCTCAGTTTTCCTGGCTGG
B2: the “Fold Change” value under setting [1] is recorded as 1.528.

B3: SEQ_ID_#58 (nucleic acid, listed as Homo sapiens)
DNA: ATGAAGGCCAACTACAGCGCAGAGGAGCGCTTTCTCCTGCTGGGTTTCTCCGACTGGCCTTCCCTGCAGCCGGTCCTCTTCGCCCTTGTCCTCCTGTGCTACCTCCTGACCTTGACGGGCAACTCGGCGCTGGTGCTGCTGGCGGTGCGCGACCCGCGCCTGCACACGCCCATGTACTACTTCCTCTGCCACCTGGCCTTGGTAGACGCGGGCTTCACTACTAGCGTGGTGCCGCCGCTGCTGGCCAACCTGCGCGGACCAGCGCTCTGGCTGCCGCGCAGCCACTGCACGGCCCAGCTGTGCGCATCGCTGGCTCTGGGTTCCGCCGAATGCGTCCTCCTGGCGGTGATGGCTCTGGACCGCGCGGCCGCAGTGTGCCGCCCGCTGCGCTATGCGGGGCTCGTCTCCCCGCGCCTATGTCGCACGCTGGCCAGCGCCTCCTGGCTAAGTGGCCTCACCAACTCGGTTGCGCAAACCGCGCTCCTGGCTGAGCGGCCGCTGTGCGCGCCCCGCCTGCTGGACCACTTCATCTGTGAGCTGCCGGCGTTGCTCAAGCTGGCCTGCGGAGGCGACGGAGACACTACCGAGAACCAGATGTTCGCCGCCCGCGTGGTCATCCTGCTGCTGCCGTTTGCCGTCATCCTGGCCTCCTACGGTGCCGTGGCCCGAGCTGTCTGTTGCATGCGGTTCAGCGGAGGCCGGAGGAGGGCGGTGGGCACGTGTGGGTCCCACCTGACAGCCGTCTGCCTGTTCTACGGCTCGGCCATCTACACCTACCTGCAGCCCGCGCAGCGCTACAACCAGGCACGGGGCAAGTTCGTATCGCTCTTCTACACCGTGGTCACACCTGCTCTCAACCCGCTCATCTACACCCTCAGGAATAAGAAAGTGAAGGGGGCAGCGAGGAGGCTGCTGCGGAGTCTGGGGAGAGGCCAGGCTGGGCAGTGA
Take B3: the “Fold Change” value under setting [2] was found to be 4.822.

B4: SEQ_ID_#65 (nucleic acid, listed as Homo sapiens)
DNA: ATGAAGGCCAACTACAGCGCAGAGGAGCGCTTTCTCCTGCTGGGTTTCTCCGACTGGCCTTCCCTGCAGCCGGTCCTCTTCGCCCTTGTCCTCCTGTGCTACCTCCTGACCTTGACGGGCAACTCGGCGCTGGTGCTGCTGGCGGTGCGCGACCCGCGCCTGCACACGCCCATGTACTACTTCCTCTGCCACCTGGCCTTGGTAGACGCGGGCTTCACTACTAGCGTGGTGCCGCCGCTGCTGGCCAACCTGCGCGGACCAGCGCTCTGGCTGCCGCGCAGCCACTGCACGGCCCAGCTGTGCGCATCGCTGGCTCTGGGTTCCGCCGAATGCGTCCTCCTGGCGGTGATGGCTCTGGACCGCGCGGCCGCAGTGTGCCGCCCGCTGCGCTATGCGGGGCTCGTCTCCCCGCGCCTATGTCGCACGCTGGCCAGCGCCTCCTGGCTAAGTGGCCTCACCAACTCGGTTGCGCAAACCGCGCTCCTGGCTGAGCGGCCGCTGTGCGCGCCCCGCCTGCTGGACCACTTCATCTGTGAGCTGCCGGCGTTGCTCAAGCTGGCCTGCGGAGGCGACGGAGACACTACCGAGAACCAGATGTTCGCCGCCCGCGTGGTCATCCTGCTGCTGCCGTTTGCCGTCATCCTGGCCTCCTACGGTGCCGTGGCCCGAGCTGTCTGTTGCATGCGGTTCAGCGGAGGCCGGAGGAGGGCGGTGGGCACGTGTGGGTCCCACCTGACAGCCGTCTGCCTGTTCTACGGCTCGGCCATCTACACCTACCTGCAGCCCGCGCAGCGCTACAACCAGGCACGGGGCAAGTTCGTATCGCTCTTCTACACCGTGGTCACACCTGCTCTCAACCCGCTCATCTACACCCTCAGGAATAAGAAAGTGAAGGGGGCAGCGAGGAGGCTGCTGCGGAGTCTGGGGAGAGGCCAGGCTGGGCAGTGA
With B4, the “Fold Change” value under setting [2] is on record as 4.547.
